Test results taken from BigSolDB 2.1.

O=C(O)c1cccc(O)c1O
solubility (mole fraction)
Conditions | 278.15 K | 283.15 K | 288.15 K | 293.15 K | 298.15 K | 303.15 K | 308.15 K | 313.15 K | 318.15 K
in acetone | 0.0969 | 0.0987 | 0.101 | 0.105 | 0.108 | 0.113 | 0.116 | 0.121 | 0.127
in acetonitrile | 0.00923 | 0.0101 | 0.0108 | 0.0115 | 0.013 | 0.0147 | 0.0158 | 0.0174 | 0.0198
in ethanol | 0.0838 | 0.0855 | 0.0884 | 0.0907 | 0.0944 | 0.0973 | 0.101 | 0.105 | 0.11
in ethyl acetate | 0.0459 | 0.048 | 0.0513 | 0.0547 | 0.059 | 0.0613 | 0.066 | 0.0719 | 0.0761
in ethyl formate | 0.0232 | 0.0245 | 0.0258 | 0.0277 | 0.0301 | 0.0321 | 0.0351 | 0.0374 | 0.0411
in isopentanol | 0.0569 | 0.0605 | 0.064 | 0.067 | 0.0709 | 0.0744 | 0.0803 | 0.0859 | 0.0904
in isopropanol | 0.0697 | 0.0727 | 0.0764 | 0.0824 | 0.0879 | 0.0902 | 0.0976 | 0.103 | 0.11
in isopropyl acetate | 0.0426 | 0.045 | 0.0494 | 0.0532 | 0.0568 | 0.0602 | 0.0644 | 0.0696 | 0.0728
in methyl acetate | 0.0466 | 0.0493 | 0.0529 | 0.0571 | 0.0594 | 0.0621 | 0.0665 | 0.0726 | 0.0764
in n-butanol | 0.0653 | 0.0683 | 0.0706 | 0.0737 | 0.0766 | 0.0806 | 0.0853 | 0.0903 | 0.0952
in n-propanol | 0.0664 | 0.07 | 0.0727 | 0.0761 | 0.0788 | 0.084 | 0.0873 | 0.0915 | 0.0977
in n-propyl acetate | 0.0454 | 0.048 | 0.0504 | 0.0534 | 0.0564 | 0.0581 | 0.0615 | 0.0672 | 0.0721
